Assay results from patent US7419969B2 (Bristol-Myers Squibb Company, priority 2004, dated 2008).

What follows are molecules tested against T1, HIV-integrase (Human immunodeficiency virus type 1 group M subtype B, UniProt P04585) (assay: in-vitro activity against HIV-integrase (HIV Integrase Inhibition, SPA bead assay)). Conditions: Table 1; recombinant integrase, activity class.
T1 construct: Recombinant integrase (0.26 ng) was incubated with the beads
Type: biochemical
Method: To evaluate in-vitro activity against HIV-integrase, 5 pmole of biotin labeled substrate DNA was bound to 100 μg of Streptavidin coated PVT SPA beads (Amersham Pharmacia Biotech). Recombinant integrase (0.26 ng) was incubated with the beads for 90 min at 37° C. Unbound enzyme was removed by washing the complex followed by addition of inhibitors and […] of P33 labeled target DNA. The reaction was stopped by adding EDTA to a final concentration of 10 mM. Samples were counted in TopCountNXT (Packard) and the CPM was used as a measure of integration. The reaction condition was as described in Engelman, A. and Craigie, R. J. Vitrol. 1996, 69, 5908. The sequences of substrate and target DNA were described in Nucleic Acid Research 1994, 22, 1121.
With `CS(=O)(=O)c1cc(F)ccc1CNC(=O)c1nc2n(c(=O)c1O)CCOC21CCOCC1` [Example 44, N-[[4-fluoro-2-(methylsulfonyl)phenyl]methyl]-2,3,5,6,6′,7′-hexahydro-3′-hydroxy-4′-oxo-spiro[4H-pyran-4,9′(4′H)-pyrimido[2,1-c][1,4]oxazine]-2′-carboxamide] the IC50 was 1 to 10 nM.
`Cc1cc(CNC(=O)c2nc3n(c(=O)c2O)CCOC32CCOCC2)ccc1F` [Example 45, N-[(4-fluoro-3-methylphenyl)methyl]-2,3,5,6,6′,7′-hexahydro-3′-hydroxy-4′-oxo-spiro[4H-pyran-4,9′(4′H)-pyrimido[2,1-c][1,4]oxazine]-2′-carboxamide] showed an IC50 of 1 to 10 nM.
Molecule `COc1ccc(CNC(=O)c2nc3n(c(=O)c2O)CCOC32CCOCC2)c(OC)c1` [Example 46, N-[(2,4-dimethoxyphenyl)methyl]-2,3,5,6,6′,7′-hexahydro-3′-hydroxy-4′-oxo-spiro[4H-pyran-4,9′(4′H)-pyrimido[2,1-c][1,4]oxazine]-2′-carboxamide] has an IC50 of 10 to 100 nM.
For `CN(C)S(=O)(=O)c1cc(F)ccc1CNC(=O)c1nc2n(c(=O)c1O)CCOC21CCOCC1` [Example 47, N-[[2-[(dimethylamino)sulfonyl]-4-fluorophenyl]methyl]-2,3,5,6,6′,7′-hexahydro-3′-hydroxy-4′-oxo-spiro[4H-pyran-4,9′(4′H)-pyrimido[2,1-c][1,4]oxazine]-2′-carboxamide], the IC50 was 10 to 100 nM.
`Cc1ccc(CNC(=O)c2nc3n(c(=O)c2O)CCOC32CCOCC2)cc1C` [Example 48, N-[(3,4-dimethylphenyl)methyl]-2,3,5,6,6′,7′-hexahydro-3′-hydroxy-4′-oxo-spiro[4H-pyran-4,9′(4′H)-pyrimido[2,1-c][1,4]oxazine]-2′-carboxamide] showed an IC50 of 1 to 10 nM.
In the case of `Cc1ncnn1-c1cc(F)ccc1CNC(=O)c1nc2n(c(=O)c1O)CCOC21CCOCC1` [Example 49, N-[[4-fluoro-2-(5-methyl-1H-1,2,4-triazol-1-yl)phenyl]methyl]-2,3,5,6,6′, 7-hexahydro-3′-hydroxy-4′-oxo-spiro[4H-pyran-4,9′(4′H)-pyrimido[2,1-c][1,4]oxazine]-2′-carboxamide], the IC50 is reported as 1 to 10 nM.
`Cc1ncn(-c2cc(F)ccc2CNC(=O)c2nc3n(c(=O)c2O)CCOC32CCOCC2)n1` [Example 50, N-[[4-fluoro-2-(3-methyl-1H-1,2,4-triazol-1-yl)phenyl]methyl]-2,3,5,6,6′,7′-hexahydro-3′-hydroxy-4′-oxo-spiro[4H-pyran-4,9′(4′H)-pyrimido[2,1-c][1,4]oxazine]-2′-carboxamide] gave an IC50 of 1 to 10 nM.
`O=C(NCc1ccc(F)cc1-n1cncn1)c1nc2n(c(=O)c1O)CCOC21CCC1` [Example 51, N-[[4-fluoro-2-(1H-1,2,4-triazol-1-yl)phenyl]methyl]-6′,7′-dihydro-3′-hydroxy-4′-oxo-spiro[cyclobutane-1,9′(4′H)-pyrimido[2,1-c][1,4]oxazine]-2′-carboxamide] showed an IC50 of 1 to 10 nM.
With `O=C(NCc1ccc(F)cc1)c1nc2n(c(=O)c1O)CCOC21CCC1` [Example 52, N-[(4-fluorophenyl)methyl]-6′,7′-dihydro-3′-hydroxy-4′-oxo-spiro[cyclobutane-1,9′(4′H)-pyrimido[2,1-c][1,4]oxazine]-2′-carboxamide] the IC50 was 1 to 10 nM.
`CS(=O)(=O)c1cc(F)ccc1CNC(=O)c1nc2n(c(=O)c1O)CCOC21CCC1` [Example 53, N-[[4-fluoro-2-(methylsulfonyl)phenyl]methyl]-6′,7′-dihydro-3′-hydroxy-4′-oxo-spiro[cyclobutane-1,9′(4′H)-pyrimido[2,1-c][1,4]oxazine]-2′-carboxamide] showed an IC50 of 1 to 10 nM.
Work on `CN(C)S(=O)(=O)c1cc(F)ccc1CNC(=O)c1nc2n(c(=O)c1O)CCOC21CCC1` [Example 54, N-[[2-[(dimethylamino)sulfonyl]-4-fluorophenyl]methyl]-6′,7′-dihydro-3′-hydroxy-4′-oxo-spiro[cyclobutane-1,9′(4′H)-pyrimido[2,1-c][1,4]oxazine]-2′-carboxamide] yielded an IC50 of 1 to 10 nM.
Work on `O=C(NCc1ccc(F)cc1N1CCCCS1(=O)=O)c1nc2n(c(=O)c1O)CCOC21CCC1` [Example 55, N-[[4-fluoro-2-(tetrahydro-1,1-dioxido-2H-1,2-thiazin-2-yl)phenyl]methyl]-6′,7′-dihydro-3′-hydroxy-4′-oxo-spiro[cyclobutane-1,9′(4′H)-pyrimido[2,1-c][1,4]oxazine]-2′-carboxamide] yielded an IC50 of 1 to 10 nM.
Work on `O=C(NCc1ccccc1N1CCCCS1(=O)=O)c1nc2n(c(=O)c1O)CCOC21CCC1` [Example 56, N-[[2-(tetrahydro-1,1-dioxido-2H-1,2-thiazin-2-yl)phenyl]methyl]-6′,7′-dihydro-3′-hydroxy-4′-oxo-spiro[cyclobutane-1,9′(4′H)-pyrimido[2,1-c][1,4]oxazine]-2′-carboxamide] yielded an IC50 of 10 to 100 nM.
Molecule `Cc1ncnn1-c1cc(F)ccc1CNC(=O)c1nc2n(c(=O)c1O)CCOC21CCC1` [Example 57, N-[[4-fluoro-2-(5-methyl-1H-1,2,4-triazol-1-yl)phenyl]methyl]-6′,7′-dihydro-3′-hydroxy-4′-oxo-spiro[cyclobutane-1,9′(4′H)-pyrimido[2,1-c][1,4]oxazine]-2′-carboxamide] has an IC50 of 1 to 10 nM.
Work on `CS(=O)(=O)c1cc(F)ccc1CNC(=O)c1nc2n(c(=O)c1O)CCCOC21CCC1` [Example 58, N-[[4-fluoro-2-(methylsulfonyl)phenyl]methyl]-7′,8′-dihydro-3′-hydroxy-4′-oxo-spiro[cyclobutane-1,10′(4′H)-[6H]pyrimido[2,1-c][1,4]oxazepine]-2′-carboxamide] yielded an IC50 of 10 to 100 nM.
`O=C(NCc1ccc(F)cc1)c1nc2n(c(=O)c1O)CCCOC21CCC1` [Example 59, N-[(4-fluorophenyl)methyl]-7′,8′-dihydro-3′-hydroxy-4′-oxo-spiro[cyclobutane-1,1 0′(4′H)-[6H]pyrimido[2,1-c][1,4]oxazepine]-2′-carboxamide] showed an IC50 of 1 to 10 nM.
For `O=C(NCc1ccc(F)cc1-n1cncn1)c1nc2n(c(=O)c1O)CCCOC21CCC1` [Example 60, N-[[4-fluoro-2-(1 H-1,2,4-triazol-1-yl)phenyl]methyl]-7′,8′-dihydro-3′-hydroxy-4′-oxo-spiro[cyclobutane-1,10′(4′H)-[6H]pyrimido[2,1-c][1,4]oxazepine]-2′-carboxamide], the IC50 was 1 to 10 nM.
For `CN(C)S(=O)(=O)c1cc(F)ccc1CNC(=O)c1nc2n(c(=O)c1O)CCCOC21CCC1` [Example 61], the IC50 was 10 to 100 nM.
For `O=C(NCc1ccccc1)c1nc2n(c(=O)c1O)CCCC21CCC1` [Example 62, N-(phenylmethyl)-7′,8′-dihydro-3′-hydroxy-4′-oxo-spiro[cyclobutane-1,9′(6′H)-[4H]pyrido[1,2-α]pyrimidine]-2′-carboxamide], the IC50 was 1 to 10 nM.
Molecule `Cc1ccc(CNC(=O)c2nc3n(c(=O)c2O)CCCC32CCC2)cc1` [Example 63, N-[(4-methylphenyl)methyl]-7′,8′-dihydro-3′-hydroxy-4′-oxo-spiro[cyclobutane-1,9′(6′H)-[4H]pyrido[1,2-α]pyrimidine]-2′-carboxamide] has an IC50 of 10 to 100 nM.
`COc1ccc(CNC(=O)c2nc3n(c(=O)c2O)CCCC32CCC2)cc1` [Example 64, N-[(4-methoxyphenyl)methyl]-7′,8′-dihydro-3′-hydroxy-4′-oxo-spiro[cyclobutane-1,9′(6H)^1-[4H]pyrido[1,2-α]pyrimidine]-2′-carboxamide] was tested, and the IC50 was 10 to 100 nM.
For `O=C(NCc1ccc(Cl)cc1)c1nc2n(c(=O)c1O)CCCC21CCC1` [Example 65, N-[(4-chlorophenyl)methyl]-7′,8′-dihydro-3′-hydroxy-4′-oxo-spiro[cyclobutane-1,9′(6′H)-[4H]pyrido[1,2-α]pyrimidine]-2′-carboxamide], the IC50 was 1 to 10 nM.
For `O=C(NCc1ccc(F)cc1)c1nc2n(c(=O)c1O)CCCC21CCC1` [Example 66, N-[(4-fluorophenyl)methyl]-7′,8′-dihydro-3′-hydroxy-4′-oxo-spiro[cyclobutane-1,9′(6′H)-[4H]pyrido[1,2-α]pyrimidine]-2′-carboxamide], the IC50 was 1 to 10 nM.
For `O=C(NCc1cccc(F)c1)c1nc2n(c(=O)c1O)CCCC21CCC1` [Example 67], the IC50 was 1 to 10 nM.
`O=C(NCc1ccccc1F)c1nc2n(c(=O)c1O)CCCC21CCC1` [Example 68, N-[(2-fluorophenyl)methyl]-7′,8′-dihydro-3′-hydroxy-4′-oxo-spiro[cyclobutane-1,9′(6′H)-[4H]pyrido[1,2-α]pyrimidine]-2′-carboxamide] showed an IC50 of 10 to 100 nM.
`Cc1ccc(CNC(=O)c2nc3n(c(=O)c2O)CCCC32CCC2)cc1C` [Example 69, N-[(3,4-dimethylphenyl)methyl]-7′,8′-dihydro-3′-hydroxy-4′-oxo-spiro[cyclobutane-1,9′(6′H)-[4H]pyrido[1,2-α]pyrimidine]-2′-carboxamide] was tested, and the IC50 was 1 to 10 nM.
For `O=C(NCc1ccc(Cl)c(Cl)c1)c1nc2n(c(=O)c1O)CCCC21CCC1` [Example 70, N-[(3,4-dichlorophenyl)methyl]-7′,8′-dihydro-3′-hydroxy-4′-oxo-spiro[cyclobutane-1,9′(6′H)-[4H]pyrido[1,2-α]pyrimidine]-2′-carboxamide], the IC50 was 1 to 10 nM.
`COc1ccc(CNC(=O)c2nc3n(c(=O)c2O)CCCC32CCC2)c(OC)c1` [Example 71, N-[(2,4-dimethoxyphenyl)methyl]-7′,8′-dihydro-3′-hydroxy-4′-oxo-spiro[cyclobutane-1,9′(6′H)-[4H]pyrido[1,2-α]pyrimidine]-2′-carboxamide] was tested, and the IC50 was 10 to 100 nM.
`Cc1cc(CNC(=O)c2nc3n(c(=O)c2O)CCCC32CCC2)ccc1F` [Example 72, N-[(4-fluoro-3-methylphenyl)methyl]-7′,8′-dihydro-3′-hydroxy-4′-oxo-spiro[cyclobutane-1,9′(6′H)-[4H]pyrido[1,2-α]pyrimidine]-2′-carboxamide] showed an IC50 of 1 to 10 nM.
